Where two headings read alike, the source gives them in different places.
Key:
[1] = system: inhA promoter mutant INH-resistant Mtb clinical isolate; assay type: cell-based, Mycobacterium tuberculosis
[2] = target: enoyl acyl carrier protein reductase (InhA) (Mycobacterium tuberculosis, UniProt P9WGR1); assay type: biochemical
[3] = system: katG S315T mutant INH-resistant Mtb clinical isolate; assay type: cell-based, Mycobacterium tuberculosis

Sequence of enoyl acyl carrier protein reductase (InhA) (P9WGR1 whole entry, looked up): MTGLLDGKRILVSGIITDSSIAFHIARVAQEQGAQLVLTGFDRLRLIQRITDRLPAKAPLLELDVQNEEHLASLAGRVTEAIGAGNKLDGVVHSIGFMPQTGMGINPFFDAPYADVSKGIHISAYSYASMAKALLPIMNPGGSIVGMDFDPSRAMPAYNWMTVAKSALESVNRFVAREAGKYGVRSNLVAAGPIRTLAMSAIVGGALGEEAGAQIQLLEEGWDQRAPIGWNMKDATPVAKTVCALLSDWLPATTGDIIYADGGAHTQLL

Molecule	MIC inhA + [1]	% Inhibition of InhA ([2]; 50 µM compound)	MIC katG + [3]	% Inhibition of InhA ([2]; 50 µM)
3-((2-Isonicotinoylhydrazono)methyl)phenyl 4-acetamidobenzenesulfonate [SIH11]	3.12 µM	10%	12.5 µM	
3-((2-Isonicotinoylhydrazono)methyl)phenyl 4-(tert-butyl)benzenesulfonate [SIH2]	1.56 µM	25%	25 µM	
3-((2-Isonicotinoylhydrazono)methyl)phenyl 4-nitrobenzenesulfonate [SIH9]	3.12 µM	8%	25 µM	
3-((2-Isonicotinoylhydrazono)methyl)phenyl 4-chlorobenzenesulfonate [SIH6]		23%	>100 µM	
3-((2-Isonicotinoylhydrazono)methyl)phenyl [1,1′-biphenyl]-4-sulfonate [SIH12]	3.12 µM	31%	12.5 µM	
3-((2-Isonicotinoylhydrazono)methyl)phenyl 4-methoxybenzenesulfonate [SIH4]	1.56 µM	5%	6.25 µM	
3-((2-Isonicotinoylhydrazono)methyl)phenyl quinoline-8-sulfonate [SIH13]	3.12 µM		12.5 µM	22%
3-((2-Isonicotinoylhydrazono)methyl)phenyl 4-methylbenzenesulfonate [SIH1]	1.56 µM	12%	50 µM	
NNC(=O)c1ccncc1 [Isoniazid, isonicotinic acid hydrazide, reference compound]	1.56 µM		6.25 µM	
3-((2-Isonicotinoylhydrazono)methyl)phenyl 2,4,6-trimethylbenzenesulfonate [SIH3]	6.25 µM		50 µM	
3-((2-Isonicotinoylhydrazono)methyl)phenyl 2,5-dichlorobenzenesulfonate [SIH8]	3.12 µM		12.5 µM	
3-((2-Isonicotinoylhydrazono)methyl)phenyl 4-bromobenzenesulfonate [SIH5]		33%	25 µM	
3-((2-Isonicotinoylhydrazono)methyl)phenyl 3-nitrobenzenesulfonate [SIH10]	3.12 µM	17%	12.5 µM	
3-((2-Isonicotinoylhydrazono)methyl)phenyl 4-iodobenzenesulfonate [SIH7]	6.25 µM	41%	>100 µM	
